{"source": "patent US4874759A", "about": "“5-Hydroxyindole-3-carboxylic acid amide compounds, pharmaceutical compositions and use” (Yoshitomi Pharmaceutical Industries, Ltd., priority 1987, dated 1989)", "key": {"[1]": {"test": "Diuretic action (oral administration to rats; urine volume and electrolytes excreted within 6 hours)", "assay_type": "in vivo, Male Wistar strain rats", "conditions": "rat, p.o., average value ± average error", "method": "Male Wistar strain rats (each weighing 180 to 220 g, six animals per group) were subjected to the experiment after they had been fasted for 18 hours and further deprived of food and water for 3 hours.\nAfter the rats were orally administered with test compounds suspended in a 0.9% saline solution at the dose of 25 ml/kg, each of them was put in a metabolic cage. The urine excreted within 6 hours after the administration was collected, and the urine volume and sodium (Na), potassium (K) and chlorine (Cl) ions were assayed. The urine sodium and potassium ions were measured by the flame spectrophotometry and the chlorine ions were measured by the chloride counter.\nThe test compounds were the compounds described below in Examples and the following (as applies to the following Pharmacological Experimental Examples), and the compounds numbers respectively correspond to the compound numbers described at the end of the compound names recited in Examples and the following. In the table, each of the numerals represents average value±average error and the mark * designates that the value is statistically significant as compared with the control by P<0.05 and mark ** designates that the value is statistically signficant by P<0.01."}, "[2]": {"test": "Acute toxicity (mortality) in mice", "assay_type": "in vivo, ddY strain mice", "conditions": "ddY mice, 300 mg/kg"}, "right vertebrartery": {"tested_on": "right vertebrartery", "test": "Action on vertebrarterial blood flow (perfused right vertebral artery of anesthetized dog)", "assay_type": "in vivo, mongrel adult dog", "conditions": "into vertebral artery, maximum increase by 100 μg papaverine hydrochloride = 100%", "method": "After mongrel adult dog was anesthetized by intravenous administration of sodium pentobarbital at the dose of 25 mg/kg body weight, the right vertebrartery was perfused and the volume of blood flow was measured. The test compounds were administered in the vertebral artery.\nWith the maximum increase rate in the blood flow being taken as 100% when 100 μg of papaverine hydrochloride (1-[(3,4-dimethoxyphenyl)methyl]-6,7-dimethoxyisoquinoline hydrochloride) was administered in the vertebral artery, the effects of the test compounds were represented by ED100 (μg) which denotes the dose required for attaining an increased rate of the blood flow of 100%."}, "left coronary artery": {"tested_on": "left coronary artery", "test": "Action on coronary blood flow (perfused left coronary artery of anesthetized dog)", "assay_type": "in vivo, mongrel adult dog", "conditions": "intracoronary, dose increasing coronary blood flow to 50% of the effect of 3 μg Nifedipine", "method": "A mongrel adult dog was anesthetized by intravenous administration with sodium pentobarbital at the dose of 30 mg/kg body weight. In accordance with the method by Yago et al [Folia pharmacologica japonica, vol. 57, p. 380 (1961)], the left coronary artery was perfused and the volume of blood flow was measured. The test compounds were administered in the coronary artery at a dosage of 10 to 30 μl. The effects of the test compounds on the coronary blood flow were represented by ED50 (μg) which was determined as the dose required for increasing the coronary blood flow to the level of 50% of the effect which was attained by administering the coronary artery 3 μg of Nifedipine [dimethyl 2,6-dimethyl-4-(2-nitrophenyl)-1,4-dihydropyridine-3,5-dicarboxylate]."}, "5-lipoxygenase": {"biological_target": "T1, 5-lipoxygenase (Cavia porcellus, UniProt A0A286X958)", "T1 construct": "supernatant fraction of intraperitoneal polymorph leukocyte of guinea pigs was prepared; from tissue; host or cells: peritoneal polymorphonuclear leukocytes of male guinea pigs (casein-elicited), 105,000×g supernatant", "T1 sequence (A0A286X958 1-674)": "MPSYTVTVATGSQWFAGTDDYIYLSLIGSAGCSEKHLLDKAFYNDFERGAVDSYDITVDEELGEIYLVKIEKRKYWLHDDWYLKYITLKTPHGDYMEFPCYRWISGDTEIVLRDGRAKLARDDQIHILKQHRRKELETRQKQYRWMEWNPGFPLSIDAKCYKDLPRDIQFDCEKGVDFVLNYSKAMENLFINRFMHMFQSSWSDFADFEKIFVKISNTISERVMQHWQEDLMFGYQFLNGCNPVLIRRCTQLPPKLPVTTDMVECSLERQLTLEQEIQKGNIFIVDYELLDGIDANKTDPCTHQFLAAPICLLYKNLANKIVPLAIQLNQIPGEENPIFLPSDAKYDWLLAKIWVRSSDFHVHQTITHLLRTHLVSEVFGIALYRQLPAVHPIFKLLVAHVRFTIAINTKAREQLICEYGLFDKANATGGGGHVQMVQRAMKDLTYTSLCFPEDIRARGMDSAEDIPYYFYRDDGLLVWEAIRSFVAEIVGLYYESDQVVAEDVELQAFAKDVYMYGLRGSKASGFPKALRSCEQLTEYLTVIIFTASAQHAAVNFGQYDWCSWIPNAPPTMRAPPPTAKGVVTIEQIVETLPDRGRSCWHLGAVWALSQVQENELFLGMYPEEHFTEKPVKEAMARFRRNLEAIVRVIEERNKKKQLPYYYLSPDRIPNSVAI", "test": "5-Lipoxygenase-inhibitory action (5-HETE production from arachidonic acid)", "assay_type": "biochemical", "conditions": "3.4 μM [1-14C] arachidonic acid, 105,000×g supernatant of guinea pig polymorph leukocyte, 30° C., 3 minutes; read-out: 50% inhibitory concentration against the production of 5-HETE", "method": "In accordance with the method of Ochi et al (J. Biol. Chem., vol. 258, pp. 5754-5758 (1983)), the 105,000×g supernatant fraction of intraperitoneal polymorph leukocyte of guinea pigs was prepared, and the capability of producing 5-hydroxyeicosatetraenoic acid (5-HETE) from arachidonic acid was assayed.\nMale guinea pigs weighing about 500 g were intraperitoneally administered with 1/10 volume (at the dose of 10 ml/100 g body weight) of a 2% casein solution and operated in the abdomen 16-18 hours after the administration. The intraperitoneal effusion was taken and the insdie of the abdomen was washed with a saline solution containing 10 mM phosphate buffer solution (pH 7.4) twice. The obtained effusion and the washing solution were collected and centrifuged at 150×g for five minutes. A 0.2% saline solution was added to the sediment, followed by hypotonic treatment to subject the mixed erythrocyte to hemolysis. After a 1.6% saline solution was added thereto to make the mixture isotonic, it was centrifuged in the same manner and suspended in 50 mM Hepes buffer solution (pH 8.0). The suspension was treated with supersonic waves (by Branson sonifier, model 185) and centrifuged at 10,000×g for 10 minutes. The supernatant was further centrifuged at 105,000×g for 60 minutes. The supernatant thus obtained was taken as the 5-lipoxygenase fraction which was freezed to -70° C. to be preserved. […]"}}, "data": [{"smiles": "Cc1[nH]c2cc(Br)c(O)c(CN3CCCCC3)c2c1C(=O)N1CCOCC1", "note": "[Compound (2), 4-(6-Bromo-5-hydroxy-2-methyl-4-piperidinomethyl-1H-indol-3-ylcarbonyl)morpholine]", "values": [{"measurement": "Excretion of Electrolyte, Cl", "setting": "[1]; 3.0 mg/kg", "value": "349 ± 27 μeq/100 g body weight/ 6 hrs."}, {"measurement": "Excretion of Electrolyte, K", "setting": "[1]; 3.0 mg/kg", "value": "95 ± 7 μeq/100 g body weight/ 6 hrs."}, {"measurement": "Excretion of Electrolyte, Na", "setting": "[1]; 3.0 mg/kg", "value": "284 ± 30 μeq/100 g body weight/ 6 hrs."}, {"measurement": "Excretion of Electrolyte, Na/K", "setting": "[1]; 3.0 mg/kg", "value": "3.1 ± 0.3"}, {"measurement": "Urine Volume", "setting": "[1]; 3.0 mg/kg", "value": "2.0 ± 0.2 ml/100 g body weight/ 6 hrs."}, {"measurement": "Death of mice", "setting": "[2]; intraperitoneal", "value": "none of them was observed to die"}, {"measurement": "Death of mice", "setting": "[2]; oral", "value": "none of them was observed to die"}]}, {"smiles": "CCCCN(CCCC)C(=O)c1c(C)n(CCc2ccccc2)c2cc(C(=O)CC)c(O)c(CN3CCCCC3)c12", "note": "[Compound (4), N,N-Dibutyl-5-hydroxy-2-methyl-1-(2-phenylethyl)-4-piperidinomethyl-6-propionylindole-3-carboxamide]", "values": [{"measurement": "Vertebrarterial vasodilating action, ED100", "setting": "right vertebrartery", "value": 63, "unit": "µg"}, {"measurement": "Coronary vasodilating action, ED50", "setting": "left coronary artery", "value": 12, "unit": "µg"}, {"measurement": "IC50", "setting": "5-lipoxygenase", "value": 20, "unit": "µM"}]}, {"smiles": "CCCCCCn1c(C)c(C(=O)N(CCCC)CCCC)c2c(CN3CCCCC3)c(O)c(C(=O)CC)cc21", "note": "[Compound (6), N,N-dibutyl-1-hexyl-5-hydroxy-2-methyl-4-piperidinomethyl-6-propionylindole-3-carboxamide]", "values": [{"measurement": "Vertebrarterial vasodilating action, ED100", "setting": "right vertebrartery", "value": 48, "unit": "µg"}, {"measurement": "Coronary vasodilating action, ED50", "setting": "left coronary artery", "value": 10, "unit": "µg"}]}, {"smiles": "CCCCNC(=O)c1c(C)n(CCCC)c2ccc(O)c(CN3CCCCC3)c12", "note": "[Compound (8), 1,N-Dibutyl-5-hydroxy-2-methyl-4-piperidinomethylindole-3-carboxamide]", "values": [{"measurement": "Vertebrarterial vasodilating action, ED100", "setting": "right vertebrartery", "value": 58, "unit": "µg"}, {"measurement": "Coronary vasodilating action, ED50", "setting": "left coronary artery", "value": 63, "unit": "µg"}]}, {"smiles": "CCCCNC(=O)c1c(C)[nH]c2cc(Br)c(O)c(CN3CCCCC3)c12", "note": "[Compound (10), 6-Bromo-N-butyl-5-hydroxy-2-methyl-4-piperidinomethylindole-3-carboxamide]", "values": [{"measurement": "Excretion of Electrolyte, Cl", "setting": "[1]; 10.0 mg/kg", "value": "379 ± 35 μeq/100 g body weight/ 6 hrs."}, {"measurement": "Excretion of Electrolyte, K", "setting": "[1]; 10.0 mg/kg", "value": "73 ± 8 μeq/100 g body weight/ 6 hrs."}, {"measurement": "Excretion of Electrolyte, Na", "setting": "[1]; 10.0 mg/kg", "value": "402 ± 43 μeq/100 g body weight/ 6 hrs."}, {"measurement": "Excretion of Electrolyte, Na/K", "setting": "[1]; 10.0 mg/kg", "value": "5.8 ± 0.7"}, {"measurement": "Urine Volume", "setting": "[1]; 10.0 mg/kg", "value": "2.6 ± 0.3 ml/100 g body weight/ 6 hrs."}]}, {"smiles": "CCCCN(CCCC)C(=O)c1c(C)[nH]c2ccc(O)c(CN3CCCCC3)c12", "note": "[Compound (17), N,N-Dibutyl-5-hydroxy-2-methyl-4-piperidinomethylindole-3-carboxamide]", "values": [{"measurement": "Excretion of Electrolyte, Cl", "setting": "[1]; 10.0 mg/kg", "value": "358 ± 25 μeq/100 g body weight/ 6 hrs."}, {"measurement": "Excretion of Electrolyte, K", "setting": "[1]; 10.0 mg/kg", "value": "64 ± 4 μeq/100 g body weight/ 6 hrs."}, {"measurement": "Excretion of Electrolyte, Na", "setting": "[1]; 10.0 mg/kg", "value": "346 ± 28 μeq/100 g body weight/ 6 hrs."}, {"measurement": "Excretion of Electrolyte, Na/K", "setting": "[1]; 10.0 mg/kg", "value": "5.7 ± 0.9"}, {"measurement": "Urine Volume", "setting": "[1]; 10.0 mg/kg", "value": "2.4 ± 0.2 ml/100 g body weight/ 6 hrs."}]}, {"smiles": "CCCCN(CCCC)C(=O)c1c(C)n(-c2ccccc2)c2cc(C(=O)CC)c(O)c(CN3CCCCC3)c12", "note": "[Compound (25), N,N-Dibutyl-5-hydroxy-2-methyl-1-phenyl-4-piperidinomethyl-6-propionylindole-3-carboxamide]", "values": [{"measurement": "Vertebrarterial vasodilating action, ED100", "setting": "right vertebrartery", "value": 76, "unit": "µg"}, {"measurement": "Coronary vasodilating action, ED50", "setting": "left coronary artery", "value": 22, "unit": "µg"}, {"measurement": "IC50", "setting": "5-lipoxygenase", "value": 19, "unit": "µM"}]}]}
